Source: patent US6593094B2, “Compositions to enhance the efficacy and safety of bio-pharmaceutical drugs” (priority 1992, dated 2003)

Assays:
[1] = tested on: mice; details: i.v. in mice; cited from earlier work
[2] = target: T1, beta-1-receptors (Rattus norvegicus, UniProt P18090); assay: in vivo cardiac response (dP/dt, LVP, HR) in anesthetized rat during infusion; details: i.v. infusion at varying rates
T1 construct: from tissue; host or cells: heart of anesthetized rat, in vivo (left ventricular pressure, dP/dt, heart rate)
T1 sequence (P18090 whole entry, the tested form may be a part): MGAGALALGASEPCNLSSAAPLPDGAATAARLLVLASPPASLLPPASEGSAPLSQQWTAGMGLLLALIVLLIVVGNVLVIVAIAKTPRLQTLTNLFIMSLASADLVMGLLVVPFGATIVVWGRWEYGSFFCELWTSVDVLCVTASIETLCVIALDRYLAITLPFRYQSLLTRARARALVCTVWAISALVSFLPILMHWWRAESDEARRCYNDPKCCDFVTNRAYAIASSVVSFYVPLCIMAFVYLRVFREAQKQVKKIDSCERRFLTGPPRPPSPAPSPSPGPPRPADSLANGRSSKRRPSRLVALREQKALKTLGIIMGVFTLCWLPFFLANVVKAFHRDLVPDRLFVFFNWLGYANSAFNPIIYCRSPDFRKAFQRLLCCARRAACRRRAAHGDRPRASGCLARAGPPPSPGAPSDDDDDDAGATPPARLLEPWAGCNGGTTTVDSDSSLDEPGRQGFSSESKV
Method: Following sedation, the neck of the rat was incised and a tracheotomy was performed, inserting a 14-gauge angiocatheter sheath into the trachea of the rat and securing it with a silk tie. The angiocatheter was connected through a small tube to a small animal respirator supplied with 1.0 liters of oxygen per minute and set to 95 breaths per minute.
The right carotid artery was next tied off, and after making a small incision, a Micro-Tip Millar pressure catheter was introduced down through the carotid artery, placing the end of the catheter into the left ventricular cavity of the rat's heart. Position of the catheter tip was determined by the waveform of the pressure reading-placement in the left ventricle was presumed when a diastolic pressure of zero mmHg and a reasonable systolic pressure (70 to 150 mmHg) was observed. […]
At this point for each rat, a baseline recording was obtained of the left ventricular pressure tracing. Segments of three to five seconds were recorded, and it was from these recorded tracings that the included figures of maximum left ventricular pressure (reported as LVP), maximum time-derivative of left ventricular pressure (dP/dT), and heart rate (HR) were later determined, by analysis with Sonometrics CardioSOFT data analysis software. […]
Again, at each rate, LVP was recorded for later analysis. […]

[3] = target: β2 receptor (Cavia porcellus, UniProt Q8K4Z4); details: calculated from a fit of the isoproterenol control curve
β2 receptor, sequence (Q8K4Z4 whole entry): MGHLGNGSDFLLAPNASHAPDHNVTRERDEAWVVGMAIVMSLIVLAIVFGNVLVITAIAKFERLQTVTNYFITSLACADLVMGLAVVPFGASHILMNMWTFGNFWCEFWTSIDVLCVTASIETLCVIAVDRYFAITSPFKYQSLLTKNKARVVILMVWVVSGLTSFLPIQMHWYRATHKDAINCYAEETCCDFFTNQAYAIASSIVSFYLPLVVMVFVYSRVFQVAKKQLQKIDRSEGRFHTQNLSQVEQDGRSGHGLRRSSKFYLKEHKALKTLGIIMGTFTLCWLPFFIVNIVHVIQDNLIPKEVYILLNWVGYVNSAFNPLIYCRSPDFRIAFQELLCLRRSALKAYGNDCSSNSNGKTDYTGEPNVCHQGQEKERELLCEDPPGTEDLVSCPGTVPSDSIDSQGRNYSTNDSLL
Source text: It is noted that, in the relevant art, there exists a method for calculating drug efficacy by utilization of easily identifiable biophysical parameters. […] Specifically, the experimental data and the calculated values were compared.

SMILES	LD50 [1]	dP/dT response with increasing dosage [2]	dP/dT response with increasing dosage ([2]; listed as Dob)	φ=(KDLKDH/2)^−½, value of the maximum of the control curve [3]
CC(CCc1ccc(O)cc1)NCCc1ccc(O)c(O)c1 (stereo not shown) [dobutamine]	73 mg/kg	at higher dosages the dP/dT again began to decrease (desensitization)	showed a decline in response	
CC(C)NCC(O)c1ccc(O)c(O)c1 (stereo not shown) [isoproterenol]				7.48 µM
